Earlier results on three molecules are cited in patent US8586054B2, “Method for modulating, treating and/or preventing metabolic syndrome using MAS-G-protein-coupled receptor agonists” (Max-Delbruck-Centrum fur Molekulare Medizin, priority 2006, dated 2013).

The conditions of data set [1]: VALUE study; hypertensive patients, valsartan versus amlodipine.
For data set [2] the following is noted: LIFE study; compared with atenolol.
For data set [3] the following is noted: HOPE study; versus placebo.

For `CCCCC(=O)N(Cc1ccc(-c2ccccc2-c2nnn[nH]2)cc1)[C@H](C(=O)O)C(C)C` [valsartan], in data set [1], the “reduction in new cases of diabetes” value is on record as 23%.

For the molecule `CCCCc1nc(Cl)c(CO)n1Cc1ccc(-c2ccccc2-c2nn[nH]n2)cc1` [Losartan], the “reduction in the appearance of new cases of diabetes” value in data set [2] was 25%.

Consider `CCOC(=O)[C@H](CCc1ccccc1)N[C@@H](C)C(=O)N1[C@H](C(=O)O)C[C@@H]2CCC[C@@H]21` [ramipril], for which the “incidence of diabetes lower than in the group that received placebo” value in data set [3] was 34%.
